System: 966289-007-R4-J1-PDC complex spheroid viability
Experiment: Anticancer human tumor 966289-007-R4-J1-PDC patient-derived pancreatic adenocarcinoma cell line growth inhibition [GQUAD]
Conditions: for IC50: curve of first compound; for viability, T/C: stronger effect = lower value
Procedure, shortened: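 Viability of tumor cells grown as complex spheroids with endothelial and stromal cells, exposed to drug combinations. Top concentration at or near clinical Cmax (else 10 microM), diluted in half-log increments.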

[1] = second compound 0.0316 µM, first compound 0.0316 µM
[2] = second compound 0.0316 µM, first compound 0.1 µM
[3] = second compound 0.0316 µM, first compound 0.316 µM
[4] = second compound 0.0316 µM, first compound 1 µM
[5] = second compound 0.0316 µM, first compound 3.16 µM
[6] = second compound 0.0316 µM, first compound 10 µM
[7] = second compound 0.1 µM, first compound 0.0316 µM
[8] = second compound 0.1 µM, first compound 0.1 µM
[9] = second compound 0.1 µM, first compound 0.316 µM
[10] = second compound 0.1 µM, first compound 1 µM
[11] = second compound 0.1 µM, first compound 3.16 µM
[12] = second compound 0.1 µM, first compound 10 µM
[13] = second compound 0.316 µM, first compound 0.0316 µM
[14] = second compound 0.316 µM, first compound 0.1 µM
[15] = second compound 0.316 µM, first compound 0.316 µM
[16] = second compound 0.316 µM, first compound 1 µM
[17] = second compound 0.316 µM, first compound 3.16 µM
[18] = second compound 0.316 µM, first compound 10 µM
[19] = second compound 1 µM, first compound 0.0316 µM
[20] = second compound 1 µM, first compound 0.1 µM
[21] = second compound 1 µM, first compound 0.316 µM
[22] = second compound 1 µM, first compound 1 µM
[23] = second compound 1 µM, first compound 3.16 µM
[24] = second compound 1 µM, first compound 10 µM
[25] = second compound 3.16 µM, first compound 0.0316 µM
[26] = second compound 3.16 µM, first compound 0.1 µM
[27] = second compound 3.16 µM, first compound 0.316 µM
[28] = second compound 3.16 µM, first compound 1 µM
[29] = second compound 3.16 µM, first compound 3.16 µM
[30] = second compound 3.16 µM, first compound 10 µM
[31] = second compound 10 µM, first compound 0.0316 µM
[32] = second compound 10 µM, first compound 0.1 µM
[33] = second compound 10 µM, first compound 0.316 µM
[34] = second compound 10 µM, first compound 1 µM
[35] = second compound 10 µM, first compound 3.16 µM
[36] = second compound 10 µM, first compound 10 µM
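Also: spheroids exposed to the agents for seven days before readout.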
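For viability, T/C in this document: percent viability relative to DMSO vehicle control wells taken as 100%.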

SMILES: CC1COCCN1c1cc(-c2ccnn2C)c2ccnc(-c3ccn[nH]3)c2n1 (stereo not drawn) + Cc1[nH]c2ccc(F)cc2c1-c1nc2c3cccnc3c3ncccc3c2[nH]1
- IC50 (second compound 0.0316 µM): 170 nM
- IC50 (second compound 0.1 µM): 161 nM
- IC50 (second compound 0.316 µM): 172 nM
- IC50 (second compound 1 µM): 177 nM
- IC50 (second compound 3.16 µM): 79.9 nM
- IC50 (second compound 10 µM): 69.3 nM
- viability, T/C [1]: 114%
- viability, T/C [2]: 77.8%
- viability, T/C [3]: 17.3%
- viability, T/C [4]: 5.52%
- viability, T/C [5]: 4.65%
- viability, T/C [6]: 3.39%
- viability, T/C [7]: 115%
- viability, T/C [8]: 73.2%
- viability, T/C [9]: 17%
- viability, T/C [10]: 6.08%
- viability, T/C [11]: 4.45%
- viability, T/C [12]: 3%
- viability, T/C [13]: 110%
- viability, T/C [14]: 80.3%
- viability, T/C [15]: 15.6%
- viability, T/C [16]: 7.15%
- viability, T/C [17]: 4.49%
- viability, T/C [18]: 3.06%
- viability, T/C [19]: 105%
- viability, T/C [20]: 78.1%
- viability, T/C [21]: 21.1%
- viability, T/C [22]: 8.54%
- viability, T/C [23]: 5.16%
- viability, T/C [24]: 2.92%
- viability, T/C [25]: 94.4%
- viability, T/C [26]: 39.3%
- viability, T/C [27]: 8.27%
- viability, T/C [28]: 7.24%
- viability, T/C [29]: 5.24%
- viability, T/C [30]: 4.9%
- viability, T/C [31]: 96.4%
- viability, T/C [32]: 28.4%
- viability, T/C [33]: 5.29%
- viability, T/C [34]: 5.42%
- viability, T/C [35]: 5.48%
- viability, T/C [36]: 5.5%

SMILES: CC1COCCN1c1cc(C2(O)CC3CCC(C2)O3)c2cnn(-c3ccn[nH]3)c2n1 (stereo not drawn) + Cc1[nH]c2ccc(F)cc2c1-c1nc2c3cccnc3c3ncccc3c2[nH]1
- IC50 (second compound 0.0316 µM): 117 nM
- IC50 (second compound 0.1 µM): 112 nM
- IC50 (second compound 0.316 µM): 134 nM
- IC50 (second compound 1 µM): 131 nM
- IC50 (second compound 3.16 µM): 60.9 nM
- IC50 (second compound 10 µM): 50.6 nM
- viability, T/C [1]: 112%
- viability, T/C [2]: 55.6%
- viability, T/C [3]: 13.9%
- viability, T/C [4]: 5.11%
- viability, T/C [5]: 4.75%
- viability, T/C [6]: 3.95%
- viability, T/C [7]: 111%
- viability, T/C [8]: 53.8%
- viability, T/C [9]: 14%
- viability, T/C [10]: 5.55%
- viability, T/C [11]: 4.82%
- viability, T/C [12]: 4.44%
- viability, T/C [13]: 105%
- viability, T/C [14]: 63.2%
- viability, T/C [15]: 11.7%
- viability, T/C [16]: 5.9%
- viability, T/C [17]: 4.9%
- viability, T/C [18]: 4.84%
- viability, T/C [19]: 98.5%
- viability, T/C [20]: 61.1%
- viability, T/C [21]: 14.2%
- viability, T/C [22]: 5.99%
- viability, T/C [23]: 4.35%
- viability, T/C [24]: 4.34%
- viability, T/C [25]: 81.8%
- viability, T/C [26]: 25.1%
- viability, T/C [27]: 11.7%
- viability, T/C [28]: 5.99%
- viability, T/C [29]: 6%
- viability, T/C [30]: 4.42%
- viability, T/C [31]: 71.7%
- viability, T/C [32]: 18.7%
- viability, T/C [33]: 6.61%
- viability, T/C [34]: 5.67%
- viability, T/C [35]: 4.73%
- viability, T/C [36]: 4.11%

SMILES: CC1COCCN1c1cc(C2(S(C)(=N)=O)CC2)nc(-c2ccnc3[nH]ccc23)n1 (stereo not drawn) + Cc1[nH]c2ccc(F)cc2c1-c1nc2c3cccnc3c3ncccc3c2[nH]1
- IC50 (second compound 0.0316 µM): 2500 nM
- IC50 (second compound 0.1 µM): 3030 nM
- IC50 (second compound 0.316 µM): 3130 nM
- IC50 (second compound 1 µM): 2870 nM
- IC50 (second compound 3.16 µM): 1750 nM
- IC50 (second compound 10 µM): 1450 nM
- viability, T/C [1]: 104%
- viability, T/C [2]: 91.8%
- viability, T/C [3]: 109%
- viability, T/C [4]: 90.9%
- viability, T/C [5]: 39.4%
- viability, T/C [6]: 7.57%
- viability, T/C [7]: 106%
- viability, T/C [8]: 104%
- viability, T/C [9]: 105%
- viability, T/C [10]: 96.3%
- viability, T/C [11]: 48.2%
- viability, T/C [12]: 8.79%
- viability, T/C [13]: 99.8%
- viability, T/C [14]: 100%
- viability, T/C [15]: 106%
- viability, T/C [16]: 101%
- viability, T/C [17]: 49.6%
- viability, T/C [18]: 6.54%
- viability, T/C [19]: 99.2%
- viability, T/C [20]: 103%
- viability, T/C [21]: 108%
- viability, T/C [22]: 90.6%
- viability, T/C [23]: 46.4%
- viability, T/C [24]: 7.68%
- viability, T/C [25]: 101%
- viability, T/C [26]: 106%
- viability, T/C [27]: 107%
- viability, T/C [28]: 77.5%
- viability, T/C [29]: 20.6%
- viability, T/C [30]: 5.11%
- viability, T/C [31]: 101%
- viability, T/C [32]: 100%
- viability, T/C [33]: 97.7%
- viability, T/C [34]: 69.1%
- viability, T/C [35]: 9.9%
- viability, T/C [36]: 3.37%

SMILES: O=C(c1cc(Cc2n[nH]c(=O)c3ccccc23)ccc1F)N1CCN(C(=O)C2CC2)CC1 + Cc1[nH]c2ccc(F)cc2c1-c1nc2c3cccnc3c3ncccc3c2[nH]1
- IC50 (second compound 0.0316 µM): 4590 nM
- IC50 (second compound 0.1 µM): 4390 nM
- IC50 (second compound 0.316 µM): 3300 nM
- IC50 (second compound 1 µM): 4380 nM
- IC50 (second compound 3.16 µM): 2990 nM
- IC50 (second compound 10 µM): 2790 nM
- viability, T/C [1]: 113%
- viability, T/C [2]: 102%
- viability, T/C [3]: 111%
- viability, T/C [4]: 101%
- viability, T/C [5]: 68.6%
- viability, T/C [6]: 11.5%
- viability, T/C [7]: 107%
- viability, T/C [8]: 103%
- viability, T/C [9]: 111%
- viability, T/C [10]: 106%
- viability, T/C [11]: 64.1%
- viability, T/C [12]: 14.8%
- viability, T/C [13]: 93%
- viability, T/C [14]: 107%
- viability, T/C [15]: 106%
- viability, T/C [16]: 108%
- viability, T/C [17]: 51.4%
- viability, T/C [18]: 15%
- viability, T/C [19]: 95.2%
- viability, T/C [20]: 101%
- viability, T/C [21]: 108%
- viability, T/C [22]: 109%
- viability, T/C [23]: 64.5%
- viability, T/C [24]: 13.1%
- viability, T/C [25]: 104%
- viability, T/C [26]: 110%
- viability, T/C [27]: 111%
- viability, T/C [28]: 105%
- viability, T/C [29]: 47.2%
- viability, T/C [30]: 7.55%
- viability, T/C [31]: 104%
- viability, T/C [32]: 103%
- viability, T/C [33]: 112%
- viability, T/C [34]: 99.8%
- viability, T/C [35]: 44%
- viability, T/C [36]: 4.64%

Reference: PubChem BioAssay AID2060488 (Molecular Pharmacology Branch, DTP, NCI, 2025)
